Data on 6 compounds can be found in publication PMC10445283, “Boronate-Based Oxidant-Responsive Derivatives of Acetaminophen as Proinhibitors of Myeloperoxidase” (Chemical Research in Toxicology, 2023).

Values joined by “and” are separate entries in the source; they are usually repeats but may differ in a detail not shown here. Equal entries are not always repeated. “Also recorded” adds a separate entry of the source. Where two headings read alike, the source gives them in different places.

Data set [1] can be described thus: Solubility in MPO assay mixture. The format is physicochemical. Particulars: above 0.3 mM in assay mixture, pH 7.4, 3% methanol. The method, then:
For AMBB, in the range of 0 nM to 0.3 mM, no inhibition of HOCl production was observed (Figure 1A).

Another data set addresses T1, MPO (Homo sapiens, UniProt P05164).
T1 construct: MPO from human neutrophils was obtained from Athens Research and Technology (Athens, GA); purchased Athens Research and Technology (Athens, GA); host or cells: human neutrophils (natural source)
As to the kind of experiment: MPO-dependent HOCl generation (summary values). The class given is biochemical. How it is done: (§1) The performance of AM and its derivatives in inhibition of the MPO chlorinating activity was evaluated using dose–response curves. The half maximal inhibitory concentration (IC50) values were determined on the basis of three independent measurements using a dose–response fitting mode implemented in OriginPro 2020 (OriginLab Corp.) software. […] MPO stock solution was prepared according to the supplier’s instruction by dissolving lyophilized powder of MPO in distilled water and was stored at 6 °C. The desired MPO activity was obtained by dilution of the stock solution with phosphate buffer (50 mM, pH 7.4) containing sodium chloride (0.1 M).

In data set [2] the target is T2, MPO from human neutrophils (Homo sapiens, UniProt P05164).
T2 construct: MPO from human neutrophils was obtained from Athens Research and Technology (Athens, GA); purchased Athens Research and Technology (Athens, GA); host or cells: human neutrophils (natural source)
T2 sequence (P05164 279-745 limits assumed): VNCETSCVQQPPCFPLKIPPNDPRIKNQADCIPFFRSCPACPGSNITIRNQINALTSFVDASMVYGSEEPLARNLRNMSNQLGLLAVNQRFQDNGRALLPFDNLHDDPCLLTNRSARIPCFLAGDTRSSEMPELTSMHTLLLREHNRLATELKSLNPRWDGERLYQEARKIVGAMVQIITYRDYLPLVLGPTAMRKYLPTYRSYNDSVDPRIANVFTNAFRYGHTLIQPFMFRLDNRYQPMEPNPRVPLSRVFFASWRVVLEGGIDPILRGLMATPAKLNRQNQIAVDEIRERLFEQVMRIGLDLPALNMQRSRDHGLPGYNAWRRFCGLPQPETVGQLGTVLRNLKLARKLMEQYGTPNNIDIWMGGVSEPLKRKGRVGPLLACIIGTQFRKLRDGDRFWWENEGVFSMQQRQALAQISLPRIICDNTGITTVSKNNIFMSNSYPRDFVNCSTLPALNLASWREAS
T2 sequence (P05164 165-273 limits assumed): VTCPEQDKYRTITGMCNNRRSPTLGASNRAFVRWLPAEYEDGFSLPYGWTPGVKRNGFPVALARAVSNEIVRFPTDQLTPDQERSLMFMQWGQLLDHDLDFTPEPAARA
As to the kind of experiment: NBD-TM oxidation assay of MPO-derived HOCl. The format is biochemical. Particulars: for IC50: NBD-TM 20 μM, MPO 0.1 nM, H2O2 10 μM, NaCl 0.1 M, pH 7.4, 5 min, read-out: IC50, inhibition of MPO chlorinating activity. The method, then: as §1
MPO-derived HOCl was monitored by an NBD-TM probe according to the previously described procedure (Supplementary Figure S5).[18] Briefly, to 96-well plates containing MPO, NBD-TM (40 μM), the studied compounds, phosphate buffer (100 mM, pH 7.4), and sodium chloride (0.2 M), 20 μM solution of hydrogen peroxide was added to start the reaction (mixing ratio 1:1 v/v). Then, the changes of fluorescence intensity were measured by Varioscan LUX using λex = 475 nm, λem = 575 nm, and slits width of 12 nm. This enabled the direct monitoring of fluorescent NBD-TSO formation.
The MPO inhibitory activity of AM was compared with its two synthesized boronated derivatives (Figure 1). […] In the taurine-based assay, HOCl oxidizes taurine to taurine N-chloramine. The resulting N-chloramine is then quantified in a reaction with N,N,N′,N′-tetramethylbenzidine catalyzed by potassium iodide.[20] In the case of the NBD-TM probe, in the presence of HOCl, the sulfur atom in the probe is oxidized to sulfoxide, producing a highly fluorescent NBD-TSO.[18]

The target of data set [3] is T2, MPO from human neutrophils. As to the kind of experiment: Taurine N-chloramine/TMB assay of MPO-derived HOCl. Particulars: for IC50: read-out: IC50, inhibition of MPO chlorinating activity. The class given is biochemical. How it is done: as §1
The diluted MPO solution was pipetted directly into the 96-well plate (1.45 μL). […] The prepared 96-well plate was incubated for 5 min, and the reaction was started by the addition of 110 μL per well of 20 μM H2O2 solution in water. The plate was incubated for another 5 min, and then 200 μL of the incubation mixtures was transferred to another 96-well plate prefilled with catalase solution (10 kU/mL, 2 μL per well) to remove unreacted hydrogen peroxide and to stop the reaction. Next, 50 μL per well of developing reagent composed of 2 mM TMB, 100 μM potassium iodide, and 0.32 M acetate buffer (pH 5.4) was added, and absorbance at 645 nm was measured by a Varioscan LUX (Thermo Fisher Scientific) plate reader controlled by SkanIt 6.0.2 software. The typical chlorinating activity of MPO during the inhibition experiments was 5 nM/s HOCl as determined using a CBA oxidation-based assay.[18] The concentration of H2O2 in the stock solution was determined spectrophotometrically at 240 nm using the molar extinction coefficient ε = 43.6 M^–1 cm^–1. The chemical structures of the TMB and CBA probes, along with their oxidation products, are presented in Supplementary Figure S5.
The MPO inhibitory activity of AM was compared with its two synthesized boronated derivatives (Figure 1). […] The resulting N-chloramine is then quantified in a reaction with N,N,N′,N′-tetramethylbenzidine catalyzed by potassium iodide.[20] […]

The nature of data set [4]: Pseudo-first-order kinetics of reaction with H2O2 (UPLC). The format is physicochemical. Particulars: pH 7.4, 20 mM phosphate buffer, 0.2–1 mM H2O2. How it is done: The rate constants for H2O2 and the studied boronic acids were determined directly under the pseudo-first-order conditions. Typically, the incubation mixtures contained boronic acid (20 μM), phosphate buffer (20 mM), CH3CN (2.5% v/v), and at least 10-fold excess of H2O2 (0.2–1 mM). The changes of analyte concentrations were followed by UPLC using a photodiode array detector (λmax = 250 ± 1.2 nm). On the basis of kinetic traces of AMBB and AAPBA decay (Supplementary Figure S6), the pseudo-first-order rate constants were determined. The second-order rate constants were calculated using the linear relationship between the determined pseudo-first-order rate constants and H2O2 concentrations.

On the set-up of data set [5]: method as in PMID 34884784. The note with it: previously reported; cited from earlier work.
The conditions of data set [6]: cited from earlier work.
Data set [7] is described as follows: Competition kinetics with FLBA: reaction with HOCl. The format is physicochemical. Particulars: pH 7.4, 50 mM phosphate buffer. The method, then:
(§2) The rate constants of the reactions of AMBB and AAPBA with ONOO^– and HOCl were determined by a competition kinetic method using FLBA as a reference compound.[18],[21],[22] In this approach, two pseudo-first-order reactions were assumed, a reaction between FLBA and the selected oxidant, ONOO^– or HOCl (eq 1), and between the investigated acetaminophen derivative (R-B(OH)2) and the oxidant (eq 2). Typically, the set of samples containing FLBA (20 μM), phosphate buffer (50 mM, pH 7.4), and AMBB or AAPBA (0–160 μM) in Eppendorf tubes was prepared. A concentrated basic solution of HOCl or ONOO^– was then added to the samples and rapidly mixed. The resulting concentration of an appropriate oxidant was 1.5 μM. Next, the samples were transferred to a 96-well plate, and the fluorescence intensity of the formed fluorescein was measured. The fluorescence intensity was followed with a Varioscan LUX plate reader using λex = 490 nm, λem = 515 nm, and slit widths of 12 nm.

Data set [8] in a line: Competition kinetics with FLBA: reaction with ONOO–. The format is physicochemical. Particulars: pH 7.4, 50 mM phosphate buffer. The method, then:
as §2

Details of data set [9]: method as in PMID 3395354. Particulars: pH 7; cited from earlier work.
Data set [10] is described as follows: Spontaneous conversion of AMB-OH into acetaminophen (UPLC). The class given is physicochemical. The method, then: Ultra-performance liquid chromatograph (UPLC) Acquity (Waters Ltd.) equipped with a photodiode array detector and combined with an LCT Premier XE (Waters Ltd.) mass spectrometer was used for the chromatographic separation and identification of AMBB and AAPBA oxidation products. Separation was performed on a reversed-phase C18 UPLC column (Waters Acquity UPLC BEH C18 […], 50 × 2.1 mm) equilibrated with a water/acetonitrile (CH3CN) (90/10 v/v) mobile phase containing 0.1% (v/v) trifluoroacetic acid (TFA). The analytes were separated at a flow rate of 0.3 mL/min. During the first 0.5 min of analysis, the composition of the mobile phase remained unchanged. […] The injection volume was 2 μL, the sample temperature was 20 °C, and the column temperature was 40 °C. The electrospray source was operated at positive ion mode using the following parameters: capillary voltage 2.8 kV, sample cone voltage 60 V, desolvation temp. 350 °C, source temp. 100 °C, desolvation gas flow 800 L/h, and cone gas flow 50 L/h. The MCP detector voltage was 2.5 kV.
Figure 4 Kinetics of the conversion of AMB-OH into acetaminophen (AM). AMB-OH was produced in situ by mixing 50 μM AMBB with 50 μM NaOCl in 20 mM phosphate buffer, pH 7.4. (A) UPLC peak areas of AMB-OH (open squares) and AM (open circles) as a function of incubation time. UPLC peak areas were integrated for chromatograms extracted at 250 ± 1.2 nm. (B) Scheme of the quinone methide moiety elimination by AMB-OH to form AM. TEXT PRINTED IN THE PICTURE: (A) AM: ^1k = (1.85 ± 0.01) × 10^-4 s^-1 | (A) AMB-OH: ^1k = (2.00 ± 0.01) × 10^-4 s^-1

The subject of another data set is COX-2. The note with it: reference not given; read-out: IC50 for the inhibition of COX-2; cited from earlier work.
Setting [11] is: abstract summary, read-out: IC50 toward MPO-dependent HOCl generation.

T1 sequence (P05164 279-745 limits assumed): as the sequence (P05164 279-745 limits assumed) above
T1 sequence (P05164 165-273 limits assumed): as the sequence (P05164 165-273 limits assumed) above

Take `CC(=O)Nc1ccc(OCc2ccc(B(O)O)cc2)cc1` [AMBB, (4-((4-Acetamidophenoxy)methyl)phenyl)-boronic Acid]: the solubility entry in data set [1] is “limited solubility and precipitation”. The IC50 at MPO (setting [11]) is above 300 µM. The “inhibitory effect on HOCl production activity of MPO” value in [2] (no taurine, effect seen in the 0.1–0.3 mM range) is given as “shows the inhibitory effects; also recorded: exhibits inhibitory activity”. In data set [3] (in the presence of taurine, 0 nM to 0.3 mM compound), the “inhibition of HOCl production” value is given as “no inhibition; also recorded: not show any inhibitory activity; also recorded: failed to inhibit the chlorination cycle”. In [4], the “second-order rate constant of reaction with H2O2” value was 1.67 M^–1 s^–1 and 1.67 ± 0.02 M^–1 s^–1.
Take `O=C(O)c1ccccc1-c1c2ccc(=O)cc-2oc2cc(B(O)O)ccc12` [FLBA, reference compound]: the “rate constant of reaction with ONOO–” value in [5] is listed as 1.0 × 10^6 M^–1 s^–1. Besides, the “rate constant of reaction with HOCl” value in data set [6] (previously reported) is reported as 1.11 × 10^4 M^–1 s^–1.
For `CC(=O)Nc1ccc(B(O)O)cc1` [AAPBA, 4-Acetamidophenylboronic Acid], the “second-order rate constant of reaction with HOCl” value in [7] is listed as “(1.72 ± 0.01) × 10^4 M^–1 s^–1”. The IC50 was 394 ± 2 µM in data set [2] and 420 ± 60 µM in data set [3]. Also, in [4], the “second-order rate constant of reaction with H2O2” value is 1.9 ± 0.1 M^–1 s^–1. In addition, in [8], the “second-order rate constant of reaction with ONOO–” value was “(1.1 ± 0.3) × 10^6 M^–1 s^–1”.
In the case of `CC(=O)Nc1ccc(O)cc1` [Acetaminophen, N-(4-hydroxyphenyl)acetamide], the IC50 on MPO (setting [11]) was 140 µM; at MPO (rounded value in discussion, read-out: IC50 for the inhibition of MPO), 150 µM; in data set [2] it was 135 ± 9 µM; in [3], 153 ± 9 µM; in the data set with COX-2 it was […]. The “electrode potential E°′ (AM-OH/AM-O·,H+ redox couple)” value in data set [9] is 0.71 ± 0.01 V. The “first-order rate constant of AM build-up from AMB-OH” value in data set [10] (pH 7.4, 20 mM phosphate buffer) is “(1.85 ± 0.01) × 10^-4 s^-1”.
Turning to `O=c1[nH]c(=O)c2[nH]c(=O)[nH]c2[nH]1` [uric acid], in data set [6] (pH 7), the “bimolecular rate constant of reaction with HOCl” value was 3 × 10^5 M^–1 s^–1.
Take `CC(=O)Nc1ccc(OCc2ccc(O)cc2)cc1` [AMB-OH, N-[4-(4-hydroxybenzyloxy)phenyl]acetamide]: the “time to complete conversion into AM” value in [10] (pH 7.4, room temperature) came out at 5 h. The half-life in [10] (phosphate buffer, pH 7.4, pH 7.4, room temperature, read-out: half-life time (converted)) was 1 h.
